Assay results: US9580418B2, “Bicyclic aromatic carboxamide compounds useful as Pim kinase inhibitors” (Incyte Corporation, priority 2014, dated 2017)

Columns and labels:
Pim-1 = Pim-1 (Homo sapiens (Human), UniProt P11309); assay: Pim-1 kinase assay (Pim enzyme assays, Example A); type: biochemical; settings: 1 mM ATP, BAD peptide substrate; read-out: PIM1 IC50
Description: (§1) Pim-1 and Pim-3 kinase assays-20 μL reactions were run in white 384 well polystyrene plates dotted with 0.8 μL compound/DMSO in the assay buffer (50 mM Tris, pH 7.5, 0.01% Tween-20, 5 mM mgCl2, 0.01% BSA, 5 mM DTT), containing 0.05 μM Biotin-labeled BAD peptide substrate (AnaSpec 62269), 1 mM ATP, and 2.5 pM (Pim-1, Invitrogen PV3503) or 1.25 pM (Pim-3, Millipore 14-738) enzyme for 1 h at 25° C. Reactions were stopped by addition of 10 μL STOP Buffer (150 mM Tris, pH=7.5, 150 mM NaCl, 75 mM EDTA, 0.01% Tween-20, 0.3% BSA,) supplemented with Phospho-Bad (Ser112) Antibody (Cell Signaling 9291) diluted 666-fold, and Streptavidin donor beads (PerkinElmer 6760002) along with Protein-A acceptor beads (PerkinElmer 6760137) at 15 μg/mL each. Supplementation of the STOP buffer with beads and stopping the reactions were done under reduced light. Prior to the stopping reactions STOP buffer with beads was preincubated for 1 h in the dark at room temperature. After stopping the reactions, plates were incubated for 1 h in the dark at room temperature before reading on a PHERAstar FS plate reader (BMG Labtech) under reduced light.

Pim-2 = Pim-2 (Homo sapiens (Human), UniProt Q9P1W9); assay: Pim-2 kinase assay (Pim enzyme assays, Example A); type: biochemical; settings: 1 mM ATP, CREBtide peptide substrate; read-out: PIM2 IC50
Description: Pim-2 kinase assay-20 μL reactions were run in white 384 well polystyrene plates dotted with 0.8 μL compound/DMSO in the assay buffer (50 mM Tris, pH 7.5, 0.01% Tween-20, 5 mM mgCl2, 0.01% BSA, 5 mM DTT), containing 0.05 μM Fluorescein-labeled CREBtide peptide substrate (Invitrogen PV3508), 1 mM ATP, and 1 nM enzyme (Invitrogen PV3649) for 2 h at 25° C. Reactions were stopped by addition of 10 μL TR-FRET Dilution Buffer (Invitrogen PV3574) with 30 mM EDTA and 1.5 nM LanthaScreen Tb-CREB pSer133 antibody (Invitrogen PV3566). After 30 min. incubation at room temperature, plates were read on a PHERAstar FS plate reader (BMG Labtech).

Pim-3 = Pim-3 (Homo sapiens (Human), UniProt Q86V86); assay: Pim-3 kinase assay (Pim enzyme assays, Example A); type: biochemical; settings: 1 mM ATP, BAD peptide substrate; read-out: PIM3 IC50
Description: as §1

pBAD in KMS.12.BM cells = assay: Pim pBAD signaling assay in KMS.12.BM cells (Example B); type: cell-based; settings: Homo sapiens, 2.5 h incubation, pBAD ELISA
Description: KG-1A cells are purchased from ATCC (Manassas, Va.) and KMS.12.BM cells are purchased from NIBIO, JCRB cell bank (Tokyo, Japan) and maintained in the culture mediums recommended, RPMI, 10% FBS and IMDM 20% FBS (Mediatech, Manassas, Va.) respectively. To measure the pBAD inhibitory activity of the compounds, both cell lines are plated with the culture medium (1×10^6/well/100 μL for KG1A and 4×10^5 cells/well/in 100 μL for KMS12BM) into 96-well V bottom polypropylene plates (Matrix, Thermo Fisher, USA) and incubated 30 min. at 37° C. to normalize cell signaling from handling. Test compounds are added at an appropriate concentration range and further incubated for 2.5 h for KMS.12.BM cells and 4 h for KG1-A cells. Plates are centrifuged at 2000 RPM for 10 min. and supernatants aspirated. 100 μL lysis buffer with protease inhibitors (Cell Signaling Technologies, Danver, Mass., Sigma, St Louis Mo., EMD, USA) is added to the pellets, mixed well and set on ice for 30 min. Lysates are frozen overnight at −80° C. To measure the pBAD activity, a Cell Signaling ELISA kit (Cell Signaling Path Scan phosphor pBAD ELISA) is utilized. 50 μL of the lysate is tested per the ELISA protocol and the data analysis is performed by software on a SpectrMax5 plate reader (Molecular Devices, Sunnyvale, Calif.). IC50 determination is performed by fitting the curve of percent inhibition versus the log of the inhibitor concentration using the GraphPad Prism 5.0 software.

Pim-1, sequence (P11309 whole entry): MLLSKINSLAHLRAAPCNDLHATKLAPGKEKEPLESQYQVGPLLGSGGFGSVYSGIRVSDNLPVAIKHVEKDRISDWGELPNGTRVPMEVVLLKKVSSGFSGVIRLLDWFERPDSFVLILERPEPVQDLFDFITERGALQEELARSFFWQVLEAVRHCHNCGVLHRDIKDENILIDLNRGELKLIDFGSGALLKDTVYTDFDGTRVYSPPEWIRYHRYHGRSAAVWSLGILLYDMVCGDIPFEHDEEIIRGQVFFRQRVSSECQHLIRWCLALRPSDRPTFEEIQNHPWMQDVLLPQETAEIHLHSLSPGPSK
Pim-2, sequence (Q9P1W9 whole entry): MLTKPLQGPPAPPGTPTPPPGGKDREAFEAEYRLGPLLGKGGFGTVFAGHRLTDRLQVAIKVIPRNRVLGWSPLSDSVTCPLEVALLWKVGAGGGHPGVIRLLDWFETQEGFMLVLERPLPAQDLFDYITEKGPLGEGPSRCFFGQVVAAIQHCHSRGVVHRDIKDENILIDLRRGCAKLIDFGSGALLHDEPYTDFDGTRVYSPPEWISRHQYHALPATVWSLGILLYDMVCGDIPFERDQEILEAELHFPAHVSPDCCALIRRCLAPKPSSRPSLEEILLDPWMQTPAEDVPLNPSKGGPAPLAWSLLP

Row | SMILES | IC50 (Pim-1) [nM] | IC50 (Pim-2) [nM] | IC50 (Pim-3) [nM] | IC50 (pBAD in KMS.12.BM cells) [nM]
1 | C[C@@H]1C[C@H](N)CN(c2ccncc2NC(=O)c2ccc3ccc(-c4ccccc4C#N)cc3n2)C1 [Example 49, N-{4-[(3S,5R)-3-Amino-5-methylpiperidin-1-yl]pyridin-3-yl}-7-(2-cyanophenyl)quinoline-2-carboxamide] | ≤ 10 | ≤ 100 | ≤ 10 | ≤ 50
2 | C[C@@H]1C[C@H](N)CN(c2ccncc2NC(=O)c2ccc3ccc(N4CCC5(CCOCC5)CC4)cc3n2)C1 [Example 15, N-{4-[(3S,5R)-3-Amino-5-methylpiperidin-1-yl]pyridin-3-yl}-7-(3-oxa-9-azaspiro[5.5]undec-9-yl)quinoline-2-carboxamide] | ≤ 10 | 100 to 1000 | ≤ 10 | 50 to 250
3 | N[C@@H]1CN(c2ccncc2NC(=O)c2ccc3ncc(N4CCC5(CCCO5)CC4)cc3n2)C[C@H](C2CC2)[C@H]1O [Example 42, N-{4-[(3R,4R,5S)-3-Amino-5-cyclopropyl-4-hydroxypiperidin-1-yl]pyridin-3-yl}-7-(1-oxa-8-azaspiro[4.5]dec-8-yl)-1,5-naphthyridine-2-carboxamide] | ≤ 10 | 100 to 1000 | ≤ 10 | 50 to 250
4 | CC(C)c1cnc2ccc(C(=O)Nc3cnccc3N3C[C@@H](N)[C@H](O)[C@@H](C)C3)nc2c1 [Example 6] | ≤ 10 | ≤ 100 | ≤ 10 | ≤ 50
5 | CCN1CCN(c2ccc3ccc(C(=O)Nc4cnccc4N4C[C@H](C)C[C@H](N)C4)nc3c2)CC1=O [Example 23, N-{4-[(3S,5R)-3-Amino-5-methylpiperidin-1-yl]pyridin-3-yl}-7-(4-ethyl-3-oxopiperazin-1-yl)quinoline-2-carboxamide] | ≤ 10 | ≤ 100 | ≤ 10 | ≤ 50
6 | C[C@H]1CN(c2ccncc2NC(=O)c2ccc3ccc(N4CCCC4)cc3n2)C[C@@H](N)[C@@H]1O [Example 30, N-{4-[(3R,4R,5S)-3-Amino-4-hydroxy-5-methylpiperidin-1-yl]pyridin-3-yl}-7-pyrrolidin-1-ylquinoline-2-carboxamide] | ≤ 10 | ≤ 100 | ≤ 10 | 50 to 250
7 | C[C@H]1CN(c2ccncc2NC(=O)c2ccc3ccc(-c4ccc(N5CCOCC5)nc4)cc3n2)C[C@@H](N)[C@@H]1O [Example 46, N-{4-[(3R,4R,5S)-3-Amino-4-hydroxy-5-methylpiperidin-1-yl]pyridin-3-yl}-7-(6-morpholin-4-ylpyridin-3-yl)quinoline-2-carboxamide] | ≤ 10 | ≤ 100 | ≤ 10 | ≤ 50
8 | C[C@H]1CN(c2ccncc2NC(=O)c2ccc3ccc(N4CCOCC4)cc3n2)C[C@@H](N)[C@@H]1O [Example 12, N-{4-[(3R,4R,5S)-3-Amino-4-hydroxy-5-methylpiperidin-1-yl]pyridin-3-yl}-7-morpholin-4-ylquinoline-2-carboxamide] | ≤ 10 | ≤ 100 | ≤ 10 | ≤ 50
9 | C[C@H]1CN(c2ccncc2NC(=O)c2ccc3ccc(N4CCC(N5CCOCC5)CC4)cc3n2)C[C@@H](N)[C@@H]1O [Example 26, N-{4-[(3R,4R,5S)-3-Amino-4-hydroxy-5-methylpiperidin-1-yl]pyridin-3-yl}-7-(4-morpholin-4-ylpiperidin-1-yl)quinoline-2-carboxamide] | ≤ 10 | ≤ 100 | ≤ 10 | 50 to 250
10 | C[C@@H]1C[C@H](N)CN(c2ccncc2NC(=O)c2ccc3ccc(N4CCC(O)CC4)cc3n2)C1 [Example 50, N-(4-((3S,5R)-3-Amino-5-methylpiperidin-1-yl)pyridin-3-yl)-7-(4-hydroxypiperidin-1-yl)quinoline-2-carboxamide] | ≤ 10 | ≤ 100 | ≤ 10 | ≤ 50
11 | CC(C)c1ccc2ccc(C(=O)Nc3cnccc3N3C[C@@H](N)[C@H](O)[C@@H](C)C3)nc2c1 [Example 10, N-{4-[(3R,4R,5S)-3-Amino-4-hydroxy-5-methylpiperidin-1-yl]pyridin-3-yl}-7-isopropylquinoline-2-carboxamide] | ≤ 10 | ≤ 100 | ≤ 10 | ≤ 50
12 | C[C@H]1CN(c2ccncc2NC(=O)c2ccc3ccc(N4CCC(C#N)CC4)cc3n2)C[C@@H](N)[C@@H]1O [Example 16, N-{4-[(3R,4R,5S)-3-Amino-4-hydroxy-5-methylpiperidin-1-yl]pyridin-3-yl}-7-(4-cyanopiperidin-1-yl)quinoline-2-carboxamide] | ≤ 10 | ≤ 100 | ≤ 10 | ≤ 50
13 | COC1CCN(c2ccc3ccc(C(=O)Nc4cnccc4N4C[C@@H](N)[C@H](O)[C@@H](C)C4)nc3c2)CC1 [Example 24, N-{4-[(3R,4R,5S)-3-Amino-4-hydroxy-5-methylpiperidin-1-yl]pyridin-3-yl}-7-(4-methoxypiperidin-1-yl)quinoline-2-carboxamide] | ≤ 10 | ≤ 100 | ≤ 10 | ≤ 50
14 | C[C@@H]1C[C@H](N)CN(c2ccncc2NC(=O)c2ccc3ccc(N4CCC4)cc3n2)C1 [Example 34, N-{4-[(3S,5R)-3-Amino-5-methylpiperidin-1-yl]pyridin-3-yl}-7-azetidin-1-ylquinoline-2-carboxamide] | ≤ 10 | ≤ 100 | ≤ 10 | 50 to 250
15 | C[C@H]1CN(c2ccncc2NC(=O)c2ccc3ccc(N4CCC5(CCOCC5)CC4)cc3n2)C[C@@H](N)[C@@H]1O [Example 14, N-{4-[(3R,4R,5S)-3-Amino-4-hydroxy-5-methylpiperidin-1-yl]pyridin-3-yl}-7-(3-oxa-9-azaspiro[5.5]undec-9-yl)quinoline-2-carboxamide] | ≤ 10 | ≤ 100 | ≤ 10 | 50 to 250
16 | CCn1cc(-c2cnc3ccc(C(=O)Nc4cnccc4N4C[C@H](C)C[C@H](N)C4)nc3c2)cn1 [Example 5, N-{4-[(3S,5R)-3-Amino-5-methylpiperidin-1-yl]pyridin-3-yl}-7-(1-ethyl-1H-pyrazol-4-yl)-1,5-naphthyridine-2-carboxamide] | ≤ 10 | 100 to 1000 | ≤ 10 | ≤ 50
17 | C[C@H]1CN(c2ccncc2NC(=O)c2ccc3ncc(N4CCOCC4)cc3n2)C[C@@H](N)[C@@H]1O [Example 8, N-{4-[(3R,4R,5S)-3-Amino-4-hydroxy-5-methylpiperidin-1-yl]pyridin-3-yl}-7-morpholin-4-yl-1,5-naphthyridine-2-carboxamide] | ≤ 10 | 100 to 1000 | ≤ 10 | ≤ 50
18 | C[C@@H]1C[C@H](N)CN(c2ccncc2NC(=O)c2ccc3ccc(N4CCC(c5ccncc5)CC4)cc3n2)C1 [Example 21, N-{4-[(3S,5R)-3-Amino-5-methylpiperidin-1-yl]pyridin-3-yl}-7-(4-pyridin-4-ylpiperidin-1-yl)quinoline-2-carboxamide] | ≤ 10 | 100 to 1000 | ≤ 10 | 50 to 250
